Data from patent US20260092061A1, “COMPOUNDS FOR TARGETED PROTEIN DEGRADATION” (Amphista Therapeutics Limited, priority 2022, published 2026).

Assays:
BRD9 [1] = molecular target: T1, BRD9 (Homo sapiens, UniProt Q9H8M2); assay: BRD9 degradation, HiBiT-BRD9 KI HEK293 (LgBiT) cells, NanoGlo Lytic Endpoint assay (Assay Protocol 1); type: cell-based; settings: Assay protocol 1, BRD9 degradation; for DC50: read-out: DC50; for Dmax: HEK293, read-out: Dmax
T1 sequence (Q9H8M2 1-597): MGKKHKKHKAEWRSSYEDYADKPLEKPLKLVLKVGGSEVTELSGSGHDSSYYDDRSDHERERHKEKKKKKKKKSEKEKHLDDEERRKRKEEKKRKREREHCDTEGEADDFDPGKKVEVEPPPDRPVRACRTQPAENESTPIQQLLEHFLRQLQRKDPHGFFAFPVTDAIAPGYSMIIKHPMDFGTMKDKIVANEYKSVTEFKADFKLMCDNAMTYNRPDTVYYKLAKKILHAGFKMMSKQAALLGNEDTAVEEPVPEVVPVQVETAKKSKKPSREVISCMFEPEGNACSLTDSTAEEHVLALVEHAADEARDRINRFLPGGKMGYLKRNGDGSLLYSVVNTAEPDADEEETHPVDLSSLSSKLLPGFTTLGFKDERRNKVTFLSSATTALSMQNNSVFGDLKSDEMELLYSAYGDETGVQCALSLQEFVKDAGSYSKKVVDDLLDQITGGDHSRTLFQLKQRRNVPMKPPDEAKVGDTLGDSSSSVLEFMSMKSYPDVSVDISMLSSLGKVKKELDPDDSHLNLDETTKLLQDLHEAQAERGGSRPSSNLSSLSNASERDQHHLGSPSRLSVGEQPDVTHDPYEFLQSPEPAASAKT
Summary of the method: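 HiBiT-tagged BRD9 knock-in HEK293 (LgBiT) cells exposed to compounds for 6 h at 37 °C, 5% CO2. Residual BRD9 measured by HiBiT lytic luminescence. % BRD9 remaining normalised to DMSO-treated cells (high) and no-cell wells (low).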

BRD9 [2] = molecular target: T1, BRD9; assay: Degradation of BRD9 (IF), immunofluorescence in MV4-11 cells, 24 hours (Assay Protocol 2); type: cell-based; parameters: A suspension of MV4-11 cells (ATCC CRL-9591) was prepared; host or cells: MV4-11; settings: BRD9 degradation; for DC50: Assay protocol 2, read-out: DC50; for Dmax: MV4-11, Assay protocol 2, read-out: Dmax
Summary of the method: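 % BRD9 remaining, scaled between DMSO (high) and 100 nM CFT-8634 (low) control wells, derives from mean Alexa 647 contrast in central nuclei by high-content imaging. MV4-11 cells had 24 h compound exposure at 37° C. before PFA fixation, Triton permeabilisation and anti-BRD9 E4Q3F immunostaining.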

Row | SMILES | DC50 (BRD9 [1]) [nM] | Dmax (BRD9 [1]) [%] | DC50 (BRD9 [2]) [nM] | Dmax (BRD9 [2]) [%]
1 | COc1cc(-c2cn(C)c(=O)c(C)c2C)cc(OC)c1CN(C)Cc1cccc2c1CCN(C(=O)/C(C#N)=C/c1cccc(C(F)(F)F)n1)C2C (mixture of isomers) [Compound B15, (E/Z)-2-(5-(((2,6-dimethoxy-4-(1,4,5-trimethyl-6-oxo-1,6-dihydropyridin-3-yl)benzyl)(methyl)amino)methyl)-1-methyl-1,2,3,4-tetrahydroisoquinoline-2-carbonyl)-3-(6-(trifluoromethyl)pyridin-2-yl)acrylonitrile] | 1.25 to 10 | > 75 | < 1.25 | > 75
2 | COc1cc(-c2cn(C)c(=O)c(C)c2C)cc(OC)c1CN(C)C(=O)c1cccc2c1CCN(C(=O)/C(C#N)=C/c1cccc(Br)n1)C2C (mixture of isomers) [Compound B16, (E/Z)-2-(3-(6-bromopyridin-2-yl)-2-cyanoacryloyl)-N-(2,6-dimethoxy-4-(1,4,5-trimethyl-6-oxo-1,6-dihydropyridin-3-yl)benzyl)-N,1-dimethyl-1,2,3,4-tetrahydroisoquinoline-5-carboxamide] | < 1.25 | > 75 | 1.25 to 10 | > 75
3 | COc1cc(-c2cn(C)c(=O)c(C)c2C)cc(OC)c1CN(C)C(=O)c1ccc2c(c1)CCN(C(=O)/C(C#N)=C/c1cccc(Br)n1)C2C (mixture of isomers) [Compound B17, (E/Z)-2(3-(6-bromopyridin-2-yl)-2-cyanoacryloyl)-N-(2,6-dimethoxy-4-(1,4,5-trimethyl-6-oxo-1,6-dihydropyridin-3-yl)benzyl)-N,1-dimethyl-1,2,3,4-tetrahydroisoquinoline-6-carboxamide] | 25 to 1000 | 40 to 70 | 25 to 1000 | 40 to 70
4 | COc1cc(-c2cn(C)c(=O)c(C)c2C)cc(OC)c1CN1CCN(Cc2cccc3c2CCN(C(=O)/C(C#N)=C/c2ccc(C)cn2)C3C)CC1 (mixture of isomers) [Compound B18, (E/Z)-2-(5-((4-(2,6-dimethoxy-4-(1,4,5-trimethyl-6-oxo-1,6-dihydropyridin-3-yl)benzyl)piperazin-1-yl)methyl)-1-methyl-1,2,3,4-tetrahydroisoquinoline-2-carbonyl)-3-(5-methylpyridin-2-yl)acrylonitrile] | 1.25 to 10 | 40 to 70 | – | 25 to 40
5 | COc1cc(-c2cn(C)c(=O)c(C)c2C)cc(OC)c1CN1CCN(Cc2cccc3c2CCN(C(=O)/C(C#N)=C/c2cc(C)ccn2)C3C)CC1 (mixture of isomers) [Compound B19, (E/Z)-2-(5-((4-(2,6-dimethoxy-4-(1,4,5-trimethyl-6-oxo-1,6-dihydropyridin-3-yl)benzyl)piperazin-1-yl)methyl)-1-methyl-1,2,3,4-tetrahydroisoquinoline-2-carbonyl)-3-(4-methylpyridin-2-yl)acrylonitrile] | 1.25 to 10 | 40 to 70 | – | 40 to 70
6 | COc1cc(-c2cn(C)c(=O)c(C)c2C)cc(OC)c1CN1CCN(Cc2cccc3c2CCN(C(=O)/C(C#N)=C/C2(F)CC2)C3C)CC1 (mixture of isomers) [Compound B20, (E/Z)-2-(5-((4-(2,6-dimethoxy-4-(1,4,5-trimethyl-6-oxo-1,6-dihydropyridin-3-yl)benzyl)piperazin-1-yl)methyl)-1-methyl-1,2,3,4-tetrahydroisoquinoline-2-carbonyl)-3-(1-fluorocyclopropyl)acrylonitrile] | < 1.25 | > 75 | < 1.25 | > 75
7 | COc1cc(-c2cn(C)c(=O)c(C)c2C)cc(OC)c1CN1CC2CC(C1)N2Cc1cccc2c1CCN(C(=O)/C(C#N)=C/c1ccnc(C)n1)C2C (mixture of isomers) [Compound B25, (E/Z)-2-(5-((3-(2,6-dimethoxy-4-(1,4,5-trimethyl-6-oxo-1,6-dihydropyridin-3-yl)benzyl)-3,6-diazabicyclo[3.1.1]heptan-6-yl)methyl)-1-methyl-1,2,3,4-tetrahydroisoquinoline-2-carbonyl)-3-(2-methylpyrimidin-4-yl)acrylonitrile] | 1.25 to 10 | > 75 | 1.25 to 10 | > 75

Second part, the compound after the results:

Row | DC50 (BRD9 [1]) [nM] | Dmax (BRD9 [1]) [%] | DC50 (BRD9 [2]) [nM] | Dmax (BRD9 [2]) [%] | SMILES
8 | 1.25 to 10 | 40 to 70 | < 1.25 | 40 to 70 | COc1cc(-c2cn(C)c(=O)c(C)c2C)cc(OC)c1CN(C)Cc1ccc2c(c1)CCN(C(=O)/C(C#N)=C/c1nc3ccccc3s1)C2C (mixture of isomers) [Compound B21, (E/Z)-3-(benzo[d]thiazol-2-yl)-2-(6-(((2,6-dimethoxy-4-(1,4,5-trimethyl-6-oxo-1,6-dihydropyridin-3-yl)benzyl)(methyl)amino)methyl)-1-methyl-1,2,3,4-tetrahydroisoquinoline-2-carbonyl)acrylonitrile]
9 | < 1.25 | 40 to 70 | 1.25 to 10 | 40 to 70 | COc1cc(-c2cn(C)c(=O)c(C)c2C)cc(OC)c1CN1CCN(Cc2cccc3c2CCN(C(=O)/C(C#N)=C/c2cccc(C)n2)C3C)CC1 (mixture of isomers) [Compound B24, (E/Z)-2-(5-((4-(2,6-dimethoxy-4-(1,4,5-trimethyl-6-oxo-1,6-dihydropyridin-3-yl)benzyl)piperazin-1-yl)methyl)-1-methyl-1,2,3,4-tetrahydroisoquinoline-2-carbonyl)-3-(6-methylpyridin-2-yl)acrylonitrile]
10 | 25 to 1000 | 70 to 75 | 10 to 25 | > 75 | COc1cc(-c2cn(C)c(=O)c(C)c2C)cc(OC)c1CN1CCN(CC(=O)NCCOc2ccc3c(c2)C(C)N(C(=O)/C(C#N)=C/c2nccs2)CC3)CC1 (mixture of isomers) [Compound B29, (E/Z)—N-(2-((2-(2-cyano-3-(thiazol-2-yl)acryloyl)-1-methyl-1,2,3,4-tetrahydroisoquinolin-7-yl)oxy)ethyl)-2-(4-(2,6-dimethoxy-4-(1,4,5-trimethyl-6-oxo-1,6-dihydropyridin-3-yl)benzyl)piperazin-1-yl)acetamide]
11 | – | 40 to 70 | 10 to 25 | 40 to 70 | COc1cc(-c2cn(C)c(=O)c(C)c2C)cc(OC)c1CN1CCN(CC(=O)NCCOc2ccc3c(c2)CCN(C(=O)/C(C#N)=C/c2nccs2)C3C)CC1 (mixture of isomers) [Compound B31, (E/Z)—N-(2-((2-(2-cyano-3-(thiazol-2-yl)acryloyl)-1-methyl-1,2,3,4-tetrahydroisoquinolin-6-yl)oxy)ethyl)-2-(4-(2,6-dimethoxy-4-(1,4,5-trimethyl-1-oxo-1,6-dihydropyridin-3-yl)benzyl)piperazin-1-yl)acetamide]
12 | 25 to 1000 | 40 to 70 | 25 to 1000 | 40 to 70 | COc1cc(-c2cn(C)c(=O)c(C)c2C)cc(OC)c1CN1CCN(CC(=O)NCCOc2cccc(C3CCCN3C(=O)/C(C#N)=C/c3nccs3)c2)CC1 (mixture of isomers) [Compound B32, (E/Z)—N-(2-(3-(1-(2-cyano-3-(thiazol-2-yl)acryloyl)pyrrolidin-2-yl)phenoxy)ethyl)-2-(4-(2,6-dimethoxy-4-(1,4,5-trimethyl-6-oxo-1,6-dihydropyridin-3-yl)benzyl)piperazin-1-yl)acetamide]
13 | 10 to 25 | 40 to 70 | 1.25 to 10 | 40 to 70 | COc1cc(-c2cn(C)c(=O)c(C)c2C)cc(OC)c1CN(C)Cc1ccc(C2CCCN2C(=O)/C(C#N)=C/C(C)(C)C)cc1 (mixture of isomers) [Compound B34]
14 | 25 to 1000 | > 75 | 10 to 25 | > 75 | COc1cc(-c2cn(C)c(=O)c(C)c2C)cc(OC)c1CN1CCN(C(=O)c2cccc(C3CCCN3C(=O)/C(C#N)=C/C(C)(C)C)c2)CC1 (mixture of isomers) [Compound B35, (E/Z)-2-(2-(3-(4-(2,6-dimethoxy-4-(1,4,5-trimethyl-6-oxo-1,6-dihydropyridin-3-yl)benzyl)piperazine-1-carbonyl)phenyl)pyrrolidine-1-carbonyl)-4,4-dimethylpent-2-enenitrile]
15 | 1.25 to 10 | 40 to 70 | 25 to 1000 | 40 to 70 | COc1cc(-c2cn(C)c(=O)c(C)c2C)cc(OC)c1CN1CCN(Cc2cccc3c2CCN(C(=O)/C(C#N)=C/C2(C(F)(F)F)CCC2)C3C)CC1 (mixture of isomers) [Compound B36, (E/Z)-2-(5-((4-(2,6-dimethoxy-4-(1,4,5-trimethyl-6-oxo-1,6-dihydropyridin-3-yl)benzyl)piperazin-1-yl)methyl)-1-methyl-1,2,3,4-tetrahydroisoquinoline-2-carbonyl)-3-(1-(trifluoromethyl)cyclobutyl)acrylonitrile]
